Two molecules from patent publication US5506361A, “Imidazobenzoquinones and composition for preventing or treating hypertension or congestive heart failure containing the same” (TheUpjohn Company, priority 1991, dated 1996) can be followed below.

Assay [1] deals with angiotensin II mesenteric artery receptor. Put plainly: In vitro angiotensin II mesenteric artery receptor binding assay. The settings on record: test 1); 125I-Ang II 0.2 nM, rat mesenteric artery membrane fraction, 22° C., 90 min. The method, then:
1) In vitro angiotensin II mesenteric artery receptor binding assay
According to the method (1) by Gunther et at., a membrane fraction was prepared from mesenteric artery of a male rat, 50 μg protein equivalent thereof and 0.2 nM ^125 I-Ang II as well as various concentrations of test compounds were incubated at 22° C. for 90 min. in 200 μl reaction volume of incubation buffer (50 mM Tris-HCl, 120 mM NaCl, 5 mM MgCl2, 0.25% bovine serum albumin, pH7.2). This was cooled, and the reaction was stopped by addition of ice-cooled phosphate buffer (10 mM phosphate, 140 mM NaCl, pH7.4, hereinafter referred to as PBS), and then the reaction solution was filtered through a glass fiber filter (Whatman CF/B), the filter was washed, dried, and then the radioactivity of captured ^125 I-angiotensin II which bound to the receptor was measured by γ-counter. Non-specific binding mount was obtained from the reaction in the presence of 1 μM of unlabeled angiotensin II. The test compound was tested at the concentration of 0.01 to 1 μM, and those that inhibited more than 50% of total specific binding mount at 1 μM was determined as an active compound, and 50% inhibiting concentration (IC50) was obtained [see Gunther, S., Gimbrone, M. A. and Alexander, R. W., Circ. Res., 17:278-286, 1980].

Assay [2] deals with angiotensin II constriction in isolated rabbit thoracic aorta. Kind of assay: Antagonism to angiotensin II constriction in an isolated rabbit thoracic aorta. It counts as cell-based. The settings on record: test 3); 10^-6 M test compound, 20 min; pA2 = -logKB. The method, then: 3) Antagonism to angiotensin II constriction in an isolated rabbit thoracic aorta
A rectangular strip-like sample of thoracic aorta isolated from an anethetized rabbit was prepared, and this was suspended at 2.0 g of loaded tension in a Magnus tube filled with Krebs-Henseleitoid nutrition solution which was well aerated with 95% O2 -5% CO2, and the constriction tension was measured using an isometric transducer. After the tension of the sample at rest became stable, accumulative administration of angiotensin II was carried out to obtain a concentration-action curve. Thereafter, the sample was washed with the same nutrition solution, and then 10^-6 M test compound was treated for 20 min. to obtain again a concentration-action curve of angiotertsin II. The results were obtained as followed: generated maximum tension at the first accumulative administration of angiotensin II was regarded as 100%, and the 50% effective concentration (ED50) was obtained in the presence or absence of the test compound, and pA2 value was calculated according to the following equations:
pA2 =-logKB KB =C/{(A'/A)-1}
C: concentration of the test compound (M)
A': ED50 in the presence of test compound (M)
A:ED50 in the absence of the test compound (M)

Assay [3] has as its target adrenal cortex angiotensin II receptor. Put plainly: In vitro adrenal cortex angiotensin II receptor binding assay. The settings on record: test 2); membrane fraction from adrenal cortex of male rat. The method, then: 2) In vitro adrenal cortex angiotensin II receptor binding assay
According to the method by Capponi et at. (1), angiotensin II receptor binding assay was carried out by preparing a membrane fraction from an adrenal cortex of a male rat and using this as a receptor material in the same manner as in the above-described pharmacological test 1) [see Capponi, A. M. and Catt, K., J. Biol. Chem. 254:5120-5127(1979)].

Assay [4] deals with blood pressure increasing by angiotensin II. Put plainly: Antagonism to blood pressure increasing by angiotensin II in a spine destroyed rat. As to conditions: Rattus norvegicus; test 4); intravenous; 3 μg/kg angiotensin II i.v.; inhibition of blood pressure increase. It counts as in vivo, Wistar rat. The text has this: 4)Antagonism to blood pressure increasing by angiotensin II in a spine destroyed rat
Wistar rat anesthetized with pentobarbital was fixed at dorsal position, and a cannula for measuring blood pressure was inserted into sinister arteria carotis communis, and a cannula for administration of the test compound into dexter external jugular vein and a cannula for administration of angiotensin II into sinister external jugular vein, arebilateral nervous vagus was cut, and artificial respiration was carried out. A thin bar made of metal was stabbed into spinal column through sininster orbita to destroy spine. Blood pressure was recorded on polygraph via pressure transducer from an arterial cannula. After blood pressure was stable for more than 30 min., 3μg/kg of angiotensin II was administered intravenously four times every 15 min., and every 5 min. before the administration of angiotensin II from the second admininstration onward, a solvent, a lower dose of the test compound, and a higher dose of the test compound were admininstered intravenously in this order to observe the blood pressure increasing response by angiotensin II. ED50 values were calculated from the inhibiting rate when the first blood pressure increase by angiotensin II was regarded as 100%.

Turning to `CCCCc1nc2c(n1Cc1ccc(-c3ccccc3C(=O)OC(C)(C)C)cc1)C(=O)c1ccccc1C2=O` [Compound No. 2, 1-[(2'-t-Butoxycarbonylbiphenyl-4-yl)methyl]-2-n-butyl-1H-naphthimidazol-4,9-dione], the IC50 in assay [1] is 50 nM; in assay [3] it was 48 nM. In assay [2], this molecule came in with a pA2 of 7.60.

For `CCCCc1nc2c(n1Cc1ccc(-c3ccccc3C(=O)O)cc1)C(=O)c1ccccc1C2=O` [Compound No. 1, 1-[(2'-Carboxybiphenyl-4-yl)methyl]-2-n-butyl-1H-naphthimidazol-4,9-dione], the figures for the half-inhibitory concentration (IC50) in assay [1] and in assay [3] were 610 nM and 540 nM, respectively. Further, the 50% effect level in assay [4] (ED50) was put at a dose of 22.6 mg/kg. The molecule further returned a pA2 in assay [2] of 6.64.

As a reminder, the IC50 is the point on the concentration scale where inhibition reaches its midpoint. A higher IC50 goes with lower potency. Broadly, the pA2 is a measure of antagonist potency on a negative log scale. A high value points to a more potent antagonist. By ED50 is commonly meant the dose at which the effect has come halfway, by size or by number of responders. A higher ED50 goes with a need for a large dose.
